≈ marks a conversion by molar mass, not a printed value. One block for each compound: values may come before it.
Columns and labels:
Staphylococcus aureus [1] = test: Antibacterial activity against methicillin-resistant Staphylococcus aureus; type: functional
Escherichia coli = test: Antibacterial activity against Escherichia coli; type: functional
Integrin alpha-M/beta-2 = Integrin alpha-M/beta-2 (Homo sapiens, UniProt P05107+P11215); test: Antagonist activity at integrin CD11B/CD18 (unknown origin); type: protein-complex assay
[2] = Anticancer activity against human U-87 MG cells assessed as growth inhibition; type: functional, U-87MG ATCC
MDA-MB-231 = test: Anticancer activity against human MDA-MB-231 cells assessed as growth inhibition; type: functional
MCF7 = test: Antiproliferative activity against human MCF7 by MTT assay; type: functional, cell-based
[3] = molecular target: T1, Hepatic sodium/bile acid cotransporter (Homo sapiens, UniProt Q14973); test: Binding affinity to NTCP (unknown origin) assessed as inhibition constant
T1 sequence (Q14973 whole entry): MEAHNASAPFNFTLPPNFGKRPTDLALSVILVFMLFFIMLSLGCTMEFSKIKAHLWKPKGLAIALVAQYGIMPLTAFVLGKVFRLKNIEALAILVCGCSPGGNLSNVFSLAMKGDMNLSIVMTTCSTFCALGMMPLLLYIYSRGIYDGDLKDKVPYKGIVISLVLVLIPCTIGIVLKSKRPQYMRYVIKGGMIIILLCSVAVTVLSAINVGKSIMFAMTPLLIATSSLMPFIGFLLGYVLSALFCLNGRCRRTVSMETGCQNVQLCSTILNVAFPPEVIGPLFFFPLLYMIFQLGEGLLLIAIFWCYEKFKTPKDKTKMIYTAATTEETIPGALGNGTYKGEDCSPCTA

[4] = molecular target: T2, Ileal sodium/bile acid cotransporter (Homo sapiens, UniProt Q12908); test: Binding affinity to ASBT (unknown origin) assessed as inhibition constant
T2 sequence (Q12908 whole entry): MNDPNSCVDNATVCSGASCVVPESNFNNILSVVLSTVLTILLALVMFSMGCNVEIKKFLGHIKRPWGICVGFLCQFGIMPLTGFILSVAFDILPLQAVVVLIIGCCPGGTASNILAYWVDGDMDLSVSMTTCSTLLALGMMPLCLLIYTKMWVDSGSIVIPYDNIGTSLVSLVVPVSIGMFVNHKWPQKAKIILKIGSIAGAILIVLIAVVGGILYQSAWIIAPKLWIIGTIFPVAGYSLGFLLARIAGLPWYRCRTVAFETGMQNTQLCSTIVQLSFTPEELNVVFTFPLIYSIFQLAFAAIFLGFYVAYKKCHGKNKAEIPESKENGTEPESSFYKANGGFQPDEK

[5] = Inhibition of Sialyltransferase (unknown origin); design: species or system Homo sapiens
Staphylococcus aureus [6] = test: Antibacterial activity against Staphylococcus aureus; type: functional
Pseudomonas aeruginosa = test: Antibacterial activity against Pseudomonas aeruginosa; type: functional
Bacillus subtilis = test: Antibacterial activity against Bacillus subtilis; type: functional
Salmonella typhimurium = test: Antibacterial activity against Salmonella enterica subsp. enterica serovar Typhimurium; type: functional
Acinetobacter baumannii = test: Antibacterial activity against Acinetobacter baumannii; type: functional
Shigella flexneri = test: Antibacterial activity against Shigella flexneri; type: functional
Streptococcus oralis = test: Antibacterial activity against Streptococcus oralis; type: functional
Klebsiella pneumoniae = test: Antibacterial activity against Klebsiella pneumoniae; type: functional
Streptococcus pneumoniae = test: Antibacterial activity against Streptococcus pneumoniae; type: functional
Rattus norvegicus [7] = test: Antiarrhythmic activity in pentobarbital anesthetized rat model assessed as number of ventricular ectopics at 10 mg/kg, iv; type: functional
Rattus norvegicus [8] = test: Antiarrhythmic activity in pentobarbital anesthetized rat model assessed as ventricular fibrillation at 10 mg/kg, iv relative to control; type: functional
Staphylococcus aureus [9] = test: Antibacterial activity against Staphylococcus aureus assessed as bacterial growth inhibition per disk; type: functional
Cladosporium cucumerinum [10] = test: Antifungal activity against Cladosporium cucumerinum assessed as zone of inhibition at 60 ug per disc; type: functional; conditions: read-out: DIZ
Cladosporium cucumerinum [11] = test: Antifungal activity against Cladosporium cucumerinum assessed as zone of inhibition at 30 ug per disc; type: functional; conditions: read-out: DIZ
Globisporangium ultimum = test: Antifungal activity against Globisporangium ultimum assessed as fungal growth inhibition per disk; type: functional
Candida albicans = test: Antifungal activity against Candida albicans assessed as fungal growth inhibition per disk; type: functional

Sequence of Integrin alpha-M/beta-2 (P05107 23-769 limits assumed, other chains not shown): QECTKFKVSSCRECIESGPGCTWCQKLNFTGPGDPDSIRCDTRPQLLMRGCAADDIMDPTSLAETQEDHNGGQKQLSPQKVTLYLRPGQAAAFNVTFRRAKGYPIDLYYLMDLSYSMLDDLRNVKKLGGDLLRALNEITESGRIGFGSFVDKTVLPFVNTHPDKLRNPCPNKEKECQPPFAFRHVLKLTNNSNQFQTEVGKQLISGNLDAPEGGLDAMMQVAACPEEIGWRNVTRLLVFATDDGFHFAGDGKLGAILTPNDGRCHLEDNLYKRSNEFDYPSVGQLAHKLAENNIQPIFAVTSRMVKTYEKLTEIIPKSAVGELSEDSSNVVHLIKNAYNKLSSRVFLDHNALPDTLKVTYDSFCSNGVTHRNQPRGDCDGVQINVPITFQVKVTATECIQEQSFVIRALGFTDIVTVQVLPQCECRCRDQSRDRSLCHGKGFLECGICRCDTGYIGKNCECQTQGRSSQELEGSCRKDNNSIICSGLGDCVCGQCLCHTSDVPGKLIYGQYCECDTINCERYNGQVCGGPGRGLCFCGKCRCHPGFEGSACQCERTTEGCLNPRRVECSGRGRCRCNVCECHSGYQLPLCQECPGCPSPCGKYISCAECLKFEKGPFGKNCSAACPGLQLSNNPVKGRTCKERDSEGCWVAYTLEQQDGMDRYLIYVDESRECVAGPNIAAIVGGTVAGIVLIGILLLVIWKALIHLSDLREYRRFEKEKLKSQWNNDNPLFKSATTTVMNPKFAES

Compound: COC(=O)CCCN[C@@H]1CC[C@@]2(C)[C@H](C1)C[C@@H](NCCCC(=O)OC)[C@@H]1[C@@H]2CC[C@]2(C)[C@@H]([C@H](C)CCCC(C)C)CC[C@@H]12
- MIC (Staphylococcus aureus [1]): 2 µg/mL (≈ 3.32 µM)

Compound: CCCCCCCCNCCC[C@@H](C)[C@H]1CC[C@H]2[C@@H]3[C@H](OCCCN)C[C@@H]4C[C@H](OCCCN)CC[C@]4(C)[C@H]3C[C@H](OCCCN)[C@]12C
- MIC (Escherichia coli): 1.5 µg/mL

Compound: Cc1ccc(NC(=O)[C@H](C)NC(=O)CC[C@@H](C)[C@H]2CC[C@H]3[C@@H]4[C@H](O)C[C@@H]5C[C@H](O)CC[C@]5(C)[C@H]4C[C@H](O)[C@]23C)cc1
- GI50 [2]: 1.62 µM
- GI50 (MDA-MB-231): 4.52 µM

Compound: CC[C@H](C)[C@H](NC(=O)CC[C@@H](C)[C@H]1CC[C@H]2[C@@H]3[C@H](O)C[C@@H]4C[C@H](O)CC[C@]4(C)[C@H]3C[C@H](O)[C@]12C)C(=O)Nc1nc2ccccc2s1
- GI50 (MDA-MB-231): 1.41 µM

Compound: CCCP(=O)(OCC)C(Cc1cn(CCC[C@@H](C)[C@H]2CC[C@H]3[C@@H]4CC[C@@H]5C[C@H](O)CC[C@]5(C)[C@H]4CC[C@]23C)nn1)C(=O)O (some centres not stated)
- IC50 [5]: 7 µM

Compound: CC(C)[C@H](NC(=O)CC[C@@H](C)[C@H]1CC[C@H]2[C@@H]3[C@H](O)C[C@@H]4C[C@H](O)CC[C@]4(C)[C@H]3C[C@H](O)[C@]12C)C(=O)Nc1ccncc1
- GI50 [2]: 2.46 µM

Compound: C[C@]12C[C@H](O)[C@@H](NC(=O)CN)C[C@H]1CC[C@@H]1[C@@H]2CC[C@]2(C)C(=O)CC[C@@H]12
- Activity (Rattus norvegicus [7]): 172
- Activity (Rattus norvegicus [8]): 11%

Compound: COC(=O)[C@H](CCCCNC(=O)CC[C@H](C)[C@H]1CC[C@H]2[C@@H]3CC[C@@H]4C[C@H](OC(C)=O)CC[C@]4(C)[C@H]3C[C@H](OC(C)=O)[C@]12C)NC(=O)CC[C@@H](C)[C@H]1CC[C@H]2[C@@H]3CC[C@@H]4C[C@H](OC(C)=O)CC[C@]4(C)[C@H]3C[C@H](OC(C)=O)[C@]12C
- IC50 (MCF7): > 100 µM

Compound: C[C@H](CCC(=O)NCC(=O)O)[C@H]1CC[C@H]2[C@@H]3[C@H](O)C[C@@H]4C[C@H](OC(=O)c5cccnc5)CC[C@]4(C)[C@H]3CC[C@]12C
- Ki [3]: 5.38 µM
- Ki [4]: 6.45 µM

Compound: C[C@H](CCC(=O)O)[C@H]1CC[C@H]2[C@@H]3CC[C@@H]4C[C@H](OC(=O)[C@H](N)CC(=O)O)CC[C@]4(C)[C@H]3CC[C@]12C
- IC50 [5]: 6 µM

Compound: CC(C)[C@H](N)C(=O)NCC(=O)OO[C@H]1C[C@H]2[C@@H]([C@H](OC(=O)CNC(=O)[C@@H](N)C(C)C)C[C@@H]3C[C@H](OC(=O)CNC(=O)[C@@H](N)C(C)C)CC[C@@]32C)[C@@H]2CC[C@H]([C@H](C)CCC(=O)OCc3ccccc3)[C@@]12C
- MIC (Acinetobacter baumannii): 16 µM (≈ 15.7 µg/mL)
- MIC (Escherichia coli): 8 µM
- MIC (Klebsiella pneumoniae): 16 µM (≈ 15.7 µg/mL)

Compound: C[C@H](CCC(=O)NCC(=O)O)[C@H]1CC[C@H]2[C@@H]3[C@H](OC(=O)c4cccnc4)C[C@@H]4C[C@H](O)CC[C@]4(C)[C@H]3CC[C@]12C
- Ki [3]: 9.29 µM
- Ki [4]: 15.6 µM

Compound: C[C@H](CCC(=O)N[C@@H](CCCCNC(=O)CC[C@H](C)[C@H]1CC[C@H]2[C@@H]3[C@H](O)C[C@@H]4C[C@H](O)CC[C@]4(C)[C@H]3C[C@H](O)[C@]12C)C(=O)O)[C@H]1CC[C@H]2[C@@H]3[C@H](O)C[C@@H]4C[C@H](O)CC[C@]4(C)[C@H]3C[C@H](O)[C@]12C
- IC50 (MCF7): > 50 µM

Compound: CCCCCCCCNCCC[C@@H](C)[C@H]1CC[C@H]2[C@@H]3[C@H](OCCCNC(=N)N)C[C@@H]4C[C@H](OCCCNC(=N)N)CC[C@]4(C)[C@H]3C[C@H](OCCCNC(=N)N)[C@]12C
- MIC (Escherichia coli): 1 µg/mL

Compound: C[C@H](CCC(=O)NCC(=O)O)[C@H]1CC[C@H]2[C@@H]3[C@@H](OC(=O)c4ccc(F)cc4)C[C@@H]4C[C@H](O)CC[C@]4(C)[C@H]3CC[C@]12C
- Ki [3]: 2.55 µM
- Ki [4]: 8.39 µM

Compound: C[C@H](CCCn1cc(CCCC(=O)O)nn1)[C@H]1CC[C@H]2[C@@H]3CC[C@@H]4C[C@H](O)CC[C@]4(C)[C@H]3CC[C@]12C
- IC50 [5]: 5 µM

Compound: Cc1c(NC(=O)[C@H](C)NC(=O)CC[C@@H](C)[C@H]2CC[C@H]3[C@@H]4[C@H](O)C[C@@H]5C[C@H](O)CC[C@]5(C)[C@H]4C[C@H](O)[C@]23C)c(=O)n(-c2ccccc2)n1C
- GI50 [2]: 2.49 µM

Compound: C=C(C(=O)N[C@H](C(=O)O)c1ccc(OC)cc1)C(C)CC[C@@H](C)[C@H]1CCC2=C3CC[C@H]4[C@H](C)[C@@H](OS(=O)(=O)O)CC[C@]4(C)[C@H]3CC[C@@]21C (some centres not stated)
- MIC (Staphylococcus aureus [9]): 100 µg
- zone of inhibition at 60 µg/disc (Cladosporium cucumerinum [10]): 8 mm
- zone of inhibition at 30 µg/disc (Cladosporium cucumerinum [11]): 10.1 mm
- MIC (Globisporangium ultimum): 25 µg
- MIC (Candida albicans): 75 µg

Now from value to compound, other results behind:

- IC50 (Integrin alpha-M/beta-2): 6.5 µM
Compound: CO[C@H]1CC[C@@]2(C)[C@@H](CC[C@H]3[C@@H]2CC[C@@]2(C)[C@H]3C[C@H](C(=O)N[C@@H](CCCNC(=N)N)C(=O)NCC(=O)N[C@@H](CC(=O)O)C(N)=O)O[C@]23CCCO3)C1

- IC50 (MCF7): < 10 µM
Compound: COC(=O)[C@H](CCCCNC(=O)CC[C@H](C)[C@H]1CC[C@H]2[C@@H]3CC[C@@H]4C[C@H](O)CC[C@]4(C)[C@H]3C[C@H](O)[C@]12C)NC(=O)CC[C@@H](C)[C@H]1CC[C@H]2[C@@H]3CC[C@@H]4C[C@H](O)CC[C@]4(C)[C@H]3C[C@H](O)[C@]12C

- GI50 (MDA-MB-231): 1.35 µM
Compound: CC[C@H](C)[C@H](NC(=O)CC[C@@H](C)[C@H]1CC[C@H]2[C@@H]3[C@H](O)C[C@@H]4C[C@H](O)CC[C@]4(C)[C@H]3C[C@H](O)[C@]12C)C(=O)Nc1ccccc1

- Ki [3]: 11.8 µM
- Ki [4]: 15.2 µM
Compound: C[C@H](CCC(=O)NCC(=O)O)[C@H]1CC[C@H]2[C@@H]3[C@@H](OC(=O)c4cccnc4)C[C@@H]4C[C@H](O)CC[C@]4(C)[C@H]3CC[C@]12C

- Ki [3]: 4.21 µM
- Ki [4]: 20.4 µM
Compound: C[C@H](CCC(=O)NCC(=O)O)[C@H]1CC[C@H]2[C@@H]3C(=O)C[C@@H]4C[C@H](O)CC[C@]4(C)[C@H]3CC[C@]12C

- MIC (Staphylococcus aureus [6]): 4 µM (≈ 2.66 µg/mL)
- MIC99 (Pseudomonas aeruginosa): 4 µM (≈ 2.66 µg/mL)
- MIC (Bacillus subtilis): 4 µM (≈ 2.66 µg/mL)
- MIC99 (Salmonella typhimurium): 4 µM (≈ 2.66 µg/mL)
- MIC99 (Acinetobacter baumannii): 4 µM (≈ 2.66 µg/mL)
- MIC99 (Shigella flexneri): 4 µM (≈ 2.66 µg/mL)
- MIC99 (Escherichia coli): 4 µM (≈ 2.66 µg/mL)
- MIC (Streptococcus oralis): 4 µM (≈ 2.66 µg/mL)
- MIC99 (Klebsiella pneumoniae): 4 µM (≈ 2.66 µg/mL)
- MIC (Streptococcus pneumoniae): 4 µM (≈ 2.66 µg/mL)
Compound: CCCCCCOC(=O)CC[C@@H](C)[C@H]1CC[C@H]2[C@@H]3[C@H](OC(=O)CN)C[C@@H]4C[C@H](OC(=O)CN)CC[C@]4(C)[C@H]3C[C@H](OC(=O)CN)[C@]12C

- IC50 (MCF7): > 50 µM
Compound: C[C@H](CCC(=O)N[C@@H](CCCCNC(=O)CC[C@H](C)[C@H]1CC[C@H]2[C@@H]3CC[C@@H]4C[C@H](O)CC[C@]4(C)[C@H]3C[C@H](O)[C@]12C)C(=O)O)[C@H]1CC[C@H]2[C@@H]3CC[C@@H]4C[C@H](O)CC[C@]4(C)[C@H]3C[C@H](O)[C@]12C

- IC50 (Integrin alpha-M/beta-2): 10.9 µM
Compound: CO[C@H]1CC[C@@]2(C)[C@@H](CC[C@H]3[C@@H]2CC[C@@]2(C)[C@H]3C[C@H](C(=O)N[C@@H](CCCNC(=N)N)C(=O)NCC(=O)N[C@@H](CC(=O)O)C(=O)NCc3ccccc3)O[C@]23CCCO3)C1

- IC50 (MCF7): < 10 µM
Compound: COC(=O)[C@H](CCCCNC(=O)CC[C@H](C)[C@H]1CC[C@H]2[C@@H]3[C@H](O)C[C@@H]4C[C@H](O)CC[C@]4(C)[C@H]3C[C@H](O)[C@]12C)NC(=O)CC[C@@H](C)[C@H]1CC[C@H]2[C@@H]3[C@H](O)C[C@@H]4C[C@H](O)CC[C@]4(C)[C@H]3C[C@H](O)[C@]12C

- MIC (Escherichia coli): 1.8 µg/mL
Compound: POLYMYXIN B

- GI50 (MDA-MB-231): 1 µM
Compound: COc1cccc2c1C(=O)c1c(O)c3c(c(O)c1C2=O)C[C@@](O)(C(=O)CO)C[C@@H]3O[C@H]1C[C@H](N)[C@H](O)[C@H](C)O1 [DOXORUBICIN]
- GI50 [2]: 2.6 µM

Reference: ChEMBL document CHEMBL5230082, “Recent advances in steroid amino acid conjugates: Old scaffolds with new dimensions” (Eur J Med Chem, 2020)
